Where two headings read alike, the source gives them in different places.
Target: recombinant eIF4E (Homo sapiens (Human), UniProt P06730)
Experiment: Fluorescence polarization competition assay for eIF4E binding potency
Method: Compounds were screened for eIF4E binding potency using a fluorescence polarization competition assay. All binding reactions were performed in fluorescence polarization buffer (FPB) containing 20 mM Tris pH 7.5, 100 mM NaCl, 1 mM DTT, and 0.02% Tween-20. Final binding reactions contained 75 nM recombinant eIF4E (Beryllium, custom order), 20 nM EDA-m^7GDP-ATTO-550 (Jena Bioscience, NU-827-550) and varying concentrations of the inhibitory compound of interest. Final DMSO concentration in each reaction was 1%.
eIF4E protein was pre-incubated with EDA-m^7GDP-ATTO-550 in FPB at 2× concentrations for 5 minutes prior to the addition of compounds. Compounds (100×) were prepared using 3-fold serial dilutions in 100% DMSO, and subsequently diluted 1:50 in FPB to produce 2× stocks. 50 μl of 2× eIF4E/EDA-m^7GDP-ATTO-550 were transferred to the wells of a 96-well half-area black flat bottom polystyrene plate. 50 μl of 2× test compound were added, and binding reactions were allowed to equilibrate for 30 minutes at room temperature while protected from light. The fluorescent polarization signal was detected using a Victor 2 multi-label counter (Perkin Elmer) and the concentration necessary to achieve inhibition of eIF4E/EDA-m^7GDP-ATTO-550 binding by 50% (IC50) was calculated using data from an 8-point compound dilution series.
In Table 4A, IC50 values of less than 0.05 μM are labelled as “+++”, from 1 to 0.05 μM are labelled as “++”, and greater than 1 μM are labelled as “+”. ND=not determined.

[1] = inhibition of eIF4E/EDA-m7GDP-ATTO-550 binding, calculated IC50 values, Table 4B, read-out: IC50
[2] = fluorescence polarization competition, 75 nM recombinant eIF4E, 20 nM EDA-m7GDP-ATTO-550, IC50 class, read-out: elF4E FP
[3] = inhibition of eIF4E/EDA-m7GDP-ATTO-550 binding by 50%, Table 4B calculated values, read-out: IC50

Chain of recombinant eIF4E (P06730 whole entry): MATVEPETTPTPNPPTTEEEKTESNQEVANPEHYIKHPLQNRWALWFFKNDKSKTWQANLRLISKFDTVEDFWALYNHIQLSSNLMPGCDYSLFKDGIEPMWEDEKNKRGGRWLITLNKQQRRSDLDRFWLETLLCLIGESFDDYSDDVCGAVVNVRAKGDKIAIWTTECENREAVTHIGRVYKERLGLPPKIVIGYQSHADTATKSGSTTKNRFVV

| Structure (SMILES) | IC50 [1] [µM] | IC50 [2] [µM] | IC50 [3] [µM] |
| --- | --- | --- | --- |
| Cc1nc2cnc(N(C)C3CCN(CC(F)(F)F)CC3)c(C#N)c2c(=O)n1CC#Cc1ccc(Cl)cc1-c1ccnc2c(C(=O)NS(=O)(=O)Cc3ccccn3)csc12 [compound 1673] | 0.00722 |  |  |
| Cc1cc(-c2cc(Cl)ccc2OCCn2c(C)nc3cc(C(F)(F)F)c(-c4cccnc4)c(C#N)c3c2=O)c2scc(C(=O)O)c2n1 [compound 630] |  | 0.05 to 1 | 0.0502 |
| Cc1nc2cnc(N(C)C3CCN(CC(F)(F)F)CC3)c(C#N)c2c(=O)n1CC#Cc1ccc(Cl)cc1-c1ccnc2c(C(=O)NS(=O)(=O)c3ccnn3C)csc12 [compound 1668] | 0.00567 |  |  |
| CCc1cc(-c2cc(Cl)ccc2OCCn2c(C)nc3cc(C(F)(F)F)cc(C#N)c3c2=O)c2scc(C(=O)O)c2n1 [compound 330] |  | < 0.05 | 0.0477 |
| Cc1nc2cnc(/C=C/CN(C)CCF)c(C#N)c2c(=O)n1CCOc1ccc(Cl)cc1-c1ccnc2c(C(=O)O)csc12 [compound 1328] | 0.0248 |  |  |
| Cc1nc2cnc(N3CCN(C4CC4)CC3(C)C)c(C#N)c2c(=O)n1CCOc1ccc(Cl)cc1-c1ccnc2c(C(=O)O)csc12 [compound 1101] |  | < 0.05 | 0.0072 |
| CCN(c1ncc2nc(C)n(CC#Cc3ccc(Cl)cc3-c3ccnc4c(C(=O)NS(C)(=O)=O)csc34)c(=O)c2c1C#N)C1CCN([C@H]2C[C@H](OC(F)F)C2)CC1 [compound 1767] | 0.0174 |  |  |
| Cc1nc2cc(C(F)(F)F)c(CN3[C@@H]4CC[C@H]3COC4)c(C#N)c2c(=O)n1CCOc1ccc(Cl)cc1-c1ccnc2c(C(=O)O)csc12 [compound 523] |  | < 0.05 | 0.0239 |
| Cc1nc2cnc(N3CC4(CC(N(C)C5CC5)C4)C3)c(C#N)c2c(=O)n1CCOc1ccc(Cl)cc1-c1ccnc2c(C(=O)O)csc12 [compound 829] |  | < 0.05 | 0.00453 |
| Cc1nc2cc(OC(F)F)cc(C#N)c2c(=O)n1CCOc1ccc(Cl)cc1-c1ccnc2c(C(=O)O)csc12 [compound 1940] | 0.0349 |  |  |
| Cc1nc2cnc(N(C)C3CCN(CC(F)(F)F)CC3)c(C#N)c2c(=O)n1CC#Cc1ccc(Cl)cc1-c1ccnc2c(C(=O)NS(=O)(=O)C(C)C)csc12 [compound 1538] | 0.0145 |  |  |
| Cc1nc2cnc(N(C)C3CCN(CC(C)(F)F)CC3)c(C(N)=O)c2c(=O)n1CC#Cc1ccc(Cl)cc1-c1ccnc2c(C(=O)OC(C)(C)C)csc12 [compound 1960] | 43.2 |  |  |
| Cc1nc2cc(C(F)(F)F)c(Cl)c(C#N)c2c(=O)n1CCOc1ccc(Cl)cc1-c1ccnc2c(C(=O)O)csc12 [compound 1904] | 0.0369 |  |  |
| CCN(c1ncc2nc(C)n(CC#Cc3ccc(Cl)cc3-c3ccnc4c(C(=O)NS(=O)(=O)C5COC5)csc34)c(=O)c2c1C#N)C1CCN(C2COC2)CC1 [compound 1750] | 0.0161 |  |  |
| Cc1nc2cc(C(F)(F)F)c(C(F)F)c(C#N)c2c(=O)n1CCOc1ccc(Cl)cc1-c1cccc(C(=O)O)c1 [compound 59] |  | < 0.05 | 0.0215 |
| Cc1sc2c(-c3cc(Cl)ccc3OCCn3c(C)nc4cc(C(F)(F)F)c(N5CCN(C)CC5=O)c(C#N)c4c3=O)ccnc2c1C(=O)O [compound 1272] | 0.0281 |  |  |
| N#Cc1cccc2nc(C(F)F)n(CCOc3ccc(Cl)cc3-c3ccc(C(=O)O)c4cnsc34)c(=O)c12 [compound 190] |  | 0.05 to 1 | 0.301 |
| Cc1nc2cnc(N(C)C3CCN(C4CC(F)(F)C4)CC3)c(C#N)c2c(=O)n1CC#Cc1ccc(Cl)cc1-c1ccnc2c(C(=O)NS(=O)(=O)c3ccccn3)csc12 [compound 1109] |  | < 0.05 | 0.0134 |
| Cc1nc2cc(C(F)F)c(C(F)F)c(C#N)c2c(=O)n1CCOc1ccc(Cl)cc1-c1cccc(C(=O)O)c1 [compound 64] |  | 0.05 to 1 | 0.0625 |
| Cc1nc2cc(C(F)(F)F)cc(C#N)c2c(=O)n1CC#Cc1ccc(Cl)cc1-c1ccnc2c(C(=O)O)csc12 [compound 1901] | 0.0357 |  |  |
| Cc1nc2cnc(N3CC4(C3)CN(C3CC3)C4)c(C#N)c2c(=O)n1CCOc1ccc(Cl)cc1-c1ccnc2c(C(=O)O)csc12 [compound 1314] | 0.0181 |  |  |
| Cc1nc(N2CCN(CCF)CC2)c(C#N)c2c(=O)n(CCOc3ccc(Cl)cc3-c3ccnc4c(C(=O)O)csc34)c(C)nc12 [compound 1624] | 0.00417 |  |  |
| Cc1nc2cnc(N(C)C3(C)CCN(CC(F)F)CC3)c(C#N)c2c(=O)n1CC#Cc1ccc(Cl)cc1-c1ccnc2c(C(=O)O)csc12 [compound 1413] | 0.0517 |  |  |
| Cc1ccc(F)c(-c2c(C(F)(F)F)cc3nc(C)n(CCOc4ccc(Cl)cc4-c4cc(C)nc5c(C(=O)O)csc45)c(=O)c3c2C#N)n1 [compound 434] |  | < 0.05 | 0.00776 |

| Structure (SMILES) | IC50 [1] [µM] | IC50 [2] [µM] | IC50 [3] [µM] |
| --- | --- | --- | --- |
| Cc1c(C(F)(F)F)c(N2CCN(C)CC2)c(C#N)c2c(=O)n(CCOc3ccc(Cl)cc3-c3ccnc4c(C(=O)O)csc34)c(C)nc12 [compound 1934] | 0.0385 |  |  |
| Cc1nc2cc(C(F)(F)CN(C)C)cc(C#N)c2c(=O)n1CCOc1ccc(Cl)cc1-c1ccnc2c(C(=O)O)csc12 [compound 514] |  | < 0.05 | 0.0399 |
| CCN(c1ncc2nc(C)n(CC#Cc3ccc(Cl)cc3-c3ccnc4c(C(=O)NS(=O)(=O)C5COC5)csc34)c(=O)c2c1C#N)C1CCN([C@H]2C[C@H](OC(F)F)C2)CC1 [compound 1768] | 0.0313 |  |  |
| Cc1cc(-c2cc(Cl)ccc2OCCn2c(C)nc3cnc(N4CC(OC(F)(F)F)C4)c(C#N)c3c2=O)c2scc(C(=O)O)c2n1 [compound 1042] |  | < 0.05 | 0.0265 |
| Cc1nc2cnc(N(C)C3CCN(CCC(F)(F)F)CC3)c(C#N)c2c(=O)n1CCOc1ccc(Cl)cc1-c1ccnc2c(C(=O)O)csc12 [compound 1360] | 0.0168 |  |  |
| Cc1cc(-c2cc(Cl)ccc2OCCn2c(C)nc3cnc(N4CC(OCC(F)(F)F)C4)c(C#N)c3c2=O)c2scc(C(=O)O)c2n1 [compound 1044] |  | < 0.05 | 0.00531 |
| Cc1cc(C#N)c2c(=O)n(CCOc3ccc(Cl)cc3-c3ccnc4c(C(=O)O)csc34)c(C)nc2c1 [compound 573] |  | 0.05 to 1 | 0.0547 |
| Cc1cc(-c2cc(Cl)ccc2OCCn2c(C)nc3c(F)c(C(F)(F)F)cc(C#N)c3c2=O)c2scc(C(=O)O)c2n1 [compound 589] |  | < 0.05 | 0.00445 |
| Cc1cc(-c2cc(Cl)ccc2OCCn2c(C)nc3cc(C(F)(F)F)c(-c4ccc(Cl)nc4)c(C#N)c3c2=O)c2scc(C(=O)O)c2n1 [compound 1059] |  | < 0.05 | 0.0111 |
| COC1CN(c2c(C(F)(F)F)cc3nc(C)n(CCOc4ccc(Cl)cc4-c4cc(C)nc5c(C(=O)O)csc45)c(=O)c3c2C#N)C1 [compound 1009] |  | < 0.05 | 0.00623 |
| Cc1nc2cc(C(F)(F)F)c(N3CC4(C3)CN(C3CC3)C4)c(C#N)c2c(=O)n1CCCc1ccc(Cl)cc1-c1ccnc2c(C(=O)O)csc12 [compound 1158] |  | < 0.05 | 0.0158 |
| Cc1cc(-c2cc(Cl)ccc2OCCn2c(C)nc3cnc(N(C)C4CCN(C)CC4)c(C#N)c3c2=O)c2sc(C)c(C(=O)O)c2n1 [compound 848] |  | < 0.05 | 0.0269 |
| Cc1cc(-c2cc(Cl)ccc2OCCn2c(C)nc3cc(C(F)(F)F)c(-c4cncc(C(F)(F)F)n4)nc3c2=O)c2scc(C(=O)O)c2n1 [compound 1021] |  | < 0.05 | 0.0211 |
| Cc1cc(-c2cc(Cl)ccc2OCCn2c(C)cc3cnc(N4CCC4)c(C#N)c3c2=O)c2scc(C(=O)O)c2n1 [compound 1003] |  | < 0.05 | 0.0134 |
| Cc1cc(-c2cc(Cl)ccc2OCCn2c(C)nc3cc(C(F)(F)F)c(-c4ncccn4)nc3c2=O)c2scc(C(=O)O)c2n1 [compound 765] |  | < 0.05 | 0.00919 |
| COc1c(Cl)cc(-c2cc(Cl)ccc2OCCn2cnc3cnc(C#N)cc3c2=O)cc1C(=O)O [compound 108] |  | > 1 | 11.2 |
| Cc1sc2c(-c3cc(Cl)ccc3OCCn3c(C)nc4cc(C(F)(F)F)c(CN(C)C)c(C#N)c4c3=O)ccnc2c1C(=O)O [compound 556] |  | < 0.05 | 0.0227 |
| Cc1ccc(-c2cc(Cl)ccc2OCCn2c(C)nc3cnc(-c4ccncc4)c(C#N)c3c2=O)c2scc(C(=O)O)c12 [compound 762] |  | < 0.05 | 0.0337 |
| Cc1cc(-c2cc(Cl)ccc2OCCn2c(C)nc3cc(F)c(-c4ccccc4)c(C#N)c3c2=O)c2scc(C(=O)O)c2n1 [compound 935] |  | < 0.05 | 0.0196 |
| Cc1cc(-c2cc(Cl)ccc2OCCn2c(C)nc3cc(C(F)(F)F)c(-c4ccncc4C)nc3c2=O)c2scc(C(=O)O)c2n1 [compound 436] |  | < 0.05 | 0.00717 |
| CC(=O)Nc1ccc(-c2cc(Cl)ccc2OCCn2cnc3cnc(C#N)cc3c2=O)cc1C(=O)O [compound 103] |  | 0.05 to 1 | 0.747 |
| Cc1nc2cc(C(F)(F)F)c(N3CCN(C)CC3)nc2c(=O)n1CCOc1ccc(Cl)cc1-c1ccnc2c(C(=O)NS(C)(=O)=O)csc12 [compound 1300] | 0.0181 |  |  |
| Cc1cc(-c2cc(Cl)ccc2OCCn2c(C)nc3cc(Cl)c(N)c(C#N)c3c2=O)c2scc(C(=O)O)c2n1 [compound 692] |  | < 0.05 | 0.00597 |
